From ChEMBL document CHEMBL5512606, “An overview of the functions of p53 and drugs acting either on wild- or mutant-type p53” (Eur J Med Chem, 2024)

How the values were obtained:
[1] = Half life in male Crl:CD Sprague-Dawley rat at 40 to 80 mg/kg/day, po or iv measured after 28 days; assay type: ADME, organism-based; conditions: in vivo, dose 40-80 mg/kg/day, time 28 day
[2] = Half life in F344/N Jcl-rnu rat at 40 to 80 mg/kg/day, po or iv measured after 28 days; assay type: ADME, organism-based; conditions: in vivo, dose 40-80 mg/kg/day, time 28 day
[3] = Oral bioavailability in male Crl:CD Sprague-Dawley rat at 40 to 80 mg/kg/day measured after 28 days; assay type: ADME, organism-based; conditions: in vivo, dose 40-80 mg/kg/day, time 28 day
[4] = Oral bioavailability in F344/N Jcl-rnu rat at 40 to 80 mg/kg/day measured after 28 days; assay type: ADME, organism-based; conditions: in vivo, dose 40-80 mg/kg/day, time 28 day
RS4-11 = test: Antitumor activity in human RS4-11 cells xenografted in mouse model assessed as tumor growth regression at 200 mg/kg,po relative to control; assay type: functional
LNCaP = test: Antitumor activity in human LNCaP cells xenografted in mouse model assessed as tumor growth regression at 200 mg/kg,po relative to control; assay type: functional

| half-life [1] | half-life [2] | bioavailability [3] | bioavailability [4] | SMILES | Activity (RS4-11) | Activity (LNCaP) |
| --- | --- | --- | --- | --- | --- | --- |
| 14 h | 14 h | 12% | 12% | COc1ccc(/C=C/c2nc(NCCCN(C)C)c3ccccc3n2)cc1 |  |  |
|  |  |  |  | CC(C)(C)C[C@@H]1N[C@@H](C(=O)N[C@H]2CC[C@H](O)CC2)[C@H](c2cccc(Cl)c2F)[C@]12C(=O)Nc1cc(Cl)ccc12 [SAR-405838] | 100% | 80% |
